In patent US12605368B2, “Suppression of neuroinflammation and composition and method therefor” (Kyoto University, priority 2020, dated 2026):
pIC50: −log10 of the molar value.

Tests used:
microglial cells BV-2 = assay: Western blotting of BV-2 cells treated with compound; format: cell-based; details: time-dependently and dose-dependently, FIG. 1A
Method: (§1) Microglial cell line BV-2 was maintained in high glucose Dulbecco's modified Eagle's medium (DMEM) (Nacalai Tesque) supplemented with 10% fetal bovine serum (Nichirei Bioscienses), 100 U/mL penicillin, and 100 μg/mL streptomycine. Primary hippocampal and cortical neuronal cultures were prepared from embryonic day 18 mice and maintained in Neurobasal medium (Life Technologies) supplemented with 2% B27 supplement, 100 U/mL, penicillin, 100 μg/mL streptomycin, and 0.5 mM L-glutamine. Dopaminergic neuronal cultures were prepared from ventral midbrain of embryonic day 13 mice and maintained in Neurobasal medium (Life Technologies) supplemented with 10% fetal bovine serum, 2% B27 supplement, 10 ng/mL GDNF, 100 U/mL penicillin, and 100 μg/mL streptomycin. For depletion of glial cells, 5 μM cytosine β-D-arabinofuranoside, 10 μM 5-fluorouracil, and 10 μM uridine (all from Sigma-Aldrich) were added at 2-day culture. Mixed glial cultures were obtained from new born murine pups (P1 to P4) and maintained in T75 or T175 flask. Media were changed every 3-4 days until the cells get confluent. Microglia were obtained either by shaking vigorously or Cd11b-positive selection (Invitrogen). For co-culture experiments, murine glial cell cultures were prepared from MGE (Medial Ganglionic Eminence) of embryonic day 13 and cultured in PLL-coated dish. Cultures were passaged twice with trypsin, and used for co-cultured assay with iPSC-derived neurons. 1039A1 iPS cells were established and maintained as described previously (Nakagawa et al., Sci Rep 4, 3594, 2014). […]
Total protein was extracted from cell culture samples using RIPA buffer (Wako) containing protease inhibitor cocktail (Nacalai Tesque) and phosphatase inhibitor cocktail (Nacalai Tesque). After 15 minutes of centrifugation at 15,000 rpm at 4° C., supernatants were collected and protein concentrations were measured using a Pierce 660 nm Protein Assay Kit (Thermo Scientific). […]

DYRK1A = DYRK1A (Homo sapiens, UniProt Q13627); assay: in vitro kinase activity assay against DYRK1A; format: biochemical
Method: In Vitro Enzyme Activity Assay
The in vitro kinase activity assay was performed as described previously (Ogawa et al., Nat Commun 1, 86, 2010).

[1] = tested on: Nrf2 in Cd11b-positive microglial cells; assay: Nrf2 immunocytochemistry in glial cells (nuclei of Cd11b-positive cells), with p21 siRNA; format: cell-based, murine; details: for Nrf2 expression: data not shown; for expression of Nrf2 in Cd11b-positive microglial cells: glial cells, FIGS. 1B and 1C
Method: Cells were plated in 96-well purecoat amine coated plates and treated as desired for each specific experiment. After immunolabeling was complete, automated image acquisition (with twenty-fold magnification of objective lens, 2×2 CCD binning, twenty-five fields per well) and analysis was performed using Opera Phenix (manufactured by PerkinElmer Co., Ltd.) equipped with Harmony software. Image acquisition was performed using a fluorescence microscope (BZ-9000, manufactured by Keyence corporation) or a confocal microscope (SP-8, manufactured by Leica) as well.
Microglial cell line BV-2 was maintained in high glucose Dulbecco's modified Eagle's medium (DMEM) (Nacalai Tesque) supplemented with 10% fetal bovine serum (Nichirei Bioscienses), 100 U/mL penicillin, and 100 μg/mL streptomycine. Primary hippocampal and cortical neuronal cultures were prepared from embryonic day 18 mice and maintained in Neurobasal medium (Life Technologies) supplemented with 2% B27 supplement, 100 U/mL, penicillin, 100 μg/mL streptomycin, and 0.5 mM L-glutamine. Dopaminergic neuronal cultures were prepared from ventral midbrain of embryonic day 13 mice and maintained in Neurobasal medium (Life Technologies) supplemented with 10% fetal bovine serum, 2% B27 supplement, 10 ng/mL GDNF, 100 U/mL penicillin, and 100 μg/mL streptomycin. For depletion of glial cells, 5 μM cytosine β-D-arabinofuranoside, 10 μM 5-fluorouracil, and 10 μM uridine (all from Sigma-Aldrich) were added at 2-day culture. Mixed glial cultures were obtained from new born murine pups (P1 to P4) and maintained in T75 or T175 flask. Media were changed every 3-4 days until the cells get confluent. Microglia were obtained either by shaking vigorously or Cd11b-positive selection (Invitrogen). For co-culture experiments, murine glial cell cultures were prepared from MGE (Medial Ganglionic Eminence) of embryonic day 13 and cultured in PLL-coated dish. Cultures were passaged twice with trypsin, and used for co-cultured assay with iPSC-derived neurons. 1039A1 iPS cells were established and maintained as described previously (Nakagawa et al., Sci Rep 4, 3594, 2014). Induction of dopaminergic precursor cells was performed as described previously (Doi et al., Stem Cell Reports 2, 337-350, 2014, Kikuchi et al., Nature 548, 592-596, 2017). Briefly, hiPS cells 1039A1 were plated on Laminin511, and differentiated in GMEM medium containing 8% KSR, Y27632 (Wako), A-83-01 (Wako), LDN193178 (STEMGENT). Purmorphamine (Wako), FGF8 (Wako, from day 1 to day 7), and CHIR99021 (Wako, from day 3 to day 12) were added. After cell sorting of Corin+ cells, cells were replated onto low attachment 96-well plates for neurosphere cultures and maintained in neurobasal medium with B27 supplement, 2 mM L-glutamine (Invitrogen), 10 ng/mL GDNF, 200 μM ascorbic acid, 20 ng/mL BDNF (all from Wako), and 400 μM dbcAMP (Sigma-Aldrich) for further 2 weeks. To avoid apoptosis, 30 μM of Y27632 (Wako) was added at the initial plating.
Cells were fixed with 4% paraformaldehyde for 10 minutes, followed by permealization with 0.2% TritonX-100 for 10 minutes. After washing in PBS, cells were blocked in 5% normal donkey serum (Jackson ImmunoResearch Laboratories)/1% BSA (SIGMA A7906)/PBS and then labeled with the primary antibodies. After washing with PBS, primary antibodies were labeled with the corresponding fluorescence-conjugated secondary antibodies. Hoechst 33342 was used to detect nuclei.
Cells were visualized with anti-Nrf2 (pseudo-color), Cd11b (magenta, microglia), and GFAP (green, astrocyte) antibodies. Scale bar=25 μm.
Glial cells were treated with the compounds 1 and 2 for indicated periods and at indicated concentrations.

microglia = assay: cytokine production of microglia upon LPS stimulation (qPCR, ELISA), with Nrf2 siRNA; format: cell-based; details: for up-regulation of proinflammatory cytokine gene expression by LPS stimulation: qPCR and ELISA, FIGS. 2A, 2B; for up-regulation of proinflammatory cytokine gene expression by LPS stimulation / induction of expression of several chemokines and iNOS mRNA: LPS stimulation; for induction of expression of several chemokines and iNOS mRNA: FIG. 2A
Method: Total RNA was extracted with RNeasy kit (Qiagen) followed by cDNA synthesis using iScript (Bio-Rad). Quantitative PCRs were carried out with SYBR green ExTaq (TaKaRa). Primers for genes were designed by using PrimerBank (Wang et al., 2012).
Studies were made on whether the compounds 1 and 2 would suppress cytokine production of microglia.
In the cells treated with Nrf2 siRNA, the suppression of cytokine production was not observed. *P<0.05.

[2] = tested on: iPSC-derived DA neurons transplanted in striatum; assay: transplantation of hiPSC-derived DA neurons into murine striatum; format: in vivo, SCID mice; details: four weeks after the transplantation; mice; administered from one hour before surgery for four days
Method: (§2) C57black/6J mice, 8 to 9-week old, were intraperitoneally injected with LPS (O55:B5) (manufactured by Sigma, L2880) at 1 mg/kg once daily for four days. hiPSC-derived dopaminergic (DA) progenitors were transplanted in striatum of 4-week-old SCID mice. Drug treatment was performed one hour before LPS-injection or iPSC transplantation.
The compound 1 was initially dissolved in DMSO at a concentration of 100 mg/mL and diluted to desired concentration with 10% Tween 80 (polysorbate 80 (HX2), manufactured by HOF Corporation) in physiological saline solution, and subcutaneously delivered in a volume of 0.05 mL/kg. The compound 2 was suspended in 0.5% carboxymethylcellulose (Nacalai Tesque) and orally administered in a volume of 0.1 mL/kg at desired concentration. Drug-treated animals were anesthetized with isofluorane for blood sampling and subsequently perfused with physiological saline solution. […] Concentration of target compounds or dopamine in serum and brain homogenates were analyzed by LC/MS using an Agilent 6420 Q-TOF mass spectrometer with an Agilent 1290 Nano-flow HPLC system (Agilent Technologies). […]
Arrows indicate iPSC-derived cells that are co-labeled by TH or Nurr1 (both are dopaminergic markers). […] The transplanted DA neurons were identified by hNuclei staining and survived iPSC-derived DA neurons were quantified with co-staining of TH and Nurr1 dopaminergic markers. […]

[3] = tested on: hiPSC-derived dopaminergic neuron progenitors; assay: co-culture of hiPSC-derived dopaminergic neuron progenitors with murine glia under H2O2 oxidative stress; format: cell-based, human; details: H2O2 treatment
Method: as §1, with “(Invitrogen).” for “(Invitrogen). For co-culture experiments, murine glial cell cultures were prepared from MGE (Medial Ganglionic Eminence) of embryonic day 13 and cultured in PLL-coated dish. Cultures were passaged twice with trypsin, and used for co-cultured assay with iPSC-derived neurons. 1039A1 iPS cells were established and maintained as described previously (Nakagawa et al., Sci Rep 4, 3594, 2014).”
The neuronal survival was evaluated according to the number of human nuclei by immunostaining (FIGS. 5A and 5B).
Dopaminergic markers of Nurr1 and TH were evaluated by qPCR (FIG. 5C). […]

mice injected with LPS = assay: LPS-induced neuro-inflammation and neurodegeneration in mice; format: in vivo, C57black/6J mice
Method: as §2
The compound 1 was initially dissolved in DMSO at a concentration of 100 mg/mL and diluted to desired concentration with 10% Tween 80 (polysorbate 80 (HX2), manufactured by HOF Corporation) in physiological saline solution, and subcutaneously delivered in a volume of 0.05 mL/kg. The compound 2 was suspended in 0.5% carboxymethylcellulose (Nacalai Tesque) and orally administered in a volume of 0.1 mL/kg at desired concentration. Drug-treated animals were anesthetized with isofluorane for blood sampling and subsequently perfused with physiological saline solution. Brain homogenates were prepared using the Beads Crusher μT-12 system (TAITEC) in five-volume of physiological saline solution. Concentration of target compounds or dopamine in serum and brain homogenates were analyzed by LC/MS using an Agilent 6420 Q-TOF mass spectrometer with an Agilent 1290 Nano-flow HPLC system (Agilent Technologies). For measurement of dopamine, 50 mg/mL ascorbic acid was added to avoid oxidization.
Adult mouse brains were perfused with PBS then fixed in 4% paraformaldehyde, and 40-μm sections were cut with a vibratome (Leica) or 20-μm sections with a cryostat (Leica) after equilibrating in 30% sucrose/PBS. After antigen retrieval using HistoOne (Nacalai Tesque), tissues were stained with indicated antibodies.
LPS was intraperitoneally administered to mice to induce neuro-inflammation. Drug (the compound 2) was administered one hour before the LPS injection to the mice. The drug was orally administered at a indicated dose once daily.
Glial activation and cytokine production were evaluated at day 1 after the administration. Degeneration of dopaminergic nerves were evaluated at day 7 and day 14 (FIGS. 4B and 4C). […]
Animals, N=5 to 6, were analyzed regarding each condition. […]

Structure (SMILES)	Nrf2 (Western blotting) (microglial cells BV-2)	cyclin D1 (Western blotting) (microglial cells BV-2)	p21 (Western blotting) (microglial cells BV-2)	pIC50 (DYRK1A)	Nrf2 expression ([1]; control siRNA-treated cells)	expression of Nrf2 in Cd11b-positive microglial cells [1]	Nrf2 expression ([1]; p21 siRNA-treated cells)	up-regulation of proinflammatory cytokine gene expression by LPS stimulation (microglia)	induction of expression of several chemokines and iNOS mRNA (microglia; qPCR)	suppression of cytokine production (microglia; cells treated with Nrf2 siRNA, qPCR, FIG. 2C)	survival rate of iPSC-derived DA neurons [2]	survival of DA neurons ([3]; co-culture with glia, FIGS. 5A to 5C)	protection of neurons ([3]; without glia)	loss of dopaminergic neurons (TH-positive cells in SNpc) (mice injected with LPS; LPS-injected mice, day 7 and day 14, FIGS. 4B and 4C)	cytokine production (mice injected with LPS; qPCR and ELISA, striatum tissues at day 1, oral once daily, FIGS. 4E and 4F)	glial activation (mice injected with LPS; qPCR on striatum tissues at day 1 from last LPS injection, oral once daily, FIG. 4D)
c1cncc(-c2ccc3[nH]ncc3c2)c1 [Compound 1]	up-regulated	up-regulated	up-regulated	7.11	increased	induced	did not increase	suppressed effectively	also suppressed	not observed						
CNC1/C(=C/C(C)=O)Sc2ccc3occc3c21 (stereo not shown) [Compound 2]				7.48	increased	induced	did not increase	suppressed effectively	also suppressed		improves	increased depending on the added amount	did not occur	rescued	suppressed	suppressed
